Columns and labels:
Type in all cases: cell-based
[1] = test system: Aspergillus niger (carsm-3); assay: Antimicrobial study, diameter of inhibition zone; details: Fungi
Excerpt: (§1) Two gram-positive Staphylococcus aureus (cars-2) and Bacillus Megnaterium, two gram-negative Escherichia coli (carsgn-2) and Salmonella Typhi (JCM-1652) bacteria, and two fungal strains Trichoderma harzianum (carsm-2) and Aspergillus niger (carsm-3) were used in this study.

[2] = test system: Trichoderma harzianum (carsm-2); assay: Antimicrobial study, diameter of inhibition zone; details: Fungi
Excerpt: as §1

Bacillus Megnaterium = assay: Antimicrobial study, diameter of inhibition zone; details: for Diameter of inhibition zones, B. megnaterium: Gram (+) bacteria
Experimental: (§2) Initially, compound L was tested against some Gram-negative and Gram-positive bacteria and the fungus strain.
as §1

[3] = test system: Escherichia coli (carsgn-2); assay: Antimicrobial study, diameter of inhibition zone; details: for Diameter of inhibition zones, E. coli: Gram (−) bacteria
Experimental: as §2, §1

[4] = test system: Salmonella Typhi (JCM-1652); assay: Antimicrobial study, diameter of inhibition zone; details: for Diameter of inhibition zones, S. typhi: Gram (−) bacteria
Experimental: as §2, §1

[5] = test system: Staphylococcus aureus (cars-2); assay: Antimicrobial study, diameter of inhibition zone; details: for Diameter of inhibition zones, S. aureus: Gram (+) bacteria
Experimental: as §2, §1

[6] = test system: hepatocellular carcinoma (HepG2); assay: MTT in vitro cytotoxicity assay; details: Homo sapiens, read-out: % cell viability
Experimental: (§3) Two human cancer cell lines were utilized in the cytotoxicity assay. They were lung cancer (A549) and hepatocellular carcinoma (HepG2). A549 and HepG2 cells were cultured in a DMEM medium supplemented with 10% Fetal Bovine Serum (FBS), and 1% Antibiotic-Antimycotic at 37° C., with 5% CO2 in a 75 cm^2 tissue culture flask.
(§4) The conversion of yellow MTT to purple formazan crystals by mitochondrial dehydrogenase of viable cell enzymes was used to assess the magnitude of cellular cytotoxicity exerted by different concentrations of L as explained earlier Kazi et al. 2023 and modified by Kumar et al. 2022. Briefly, cancer cells were plated in 96-well plates (2×10^3 cells/well) in full cell growth medium and incubated for 24 h at 37° C. under a humidified atmosphere of 5% CO2. The cell medium was then replaced by a cell growth medium containing 5% FBS (DMEM medium), containing different concentrations of L. This experiment was performed in two batches. In the first batch, concentrations of L were 1.95, 3.9, 7.8, 15.6, 31.25, 62.5, 125 and 250 μg/ml with control (without any treatment). In the second batch, concentrations of L were 0.078, 0.156, 0.312, 0.625, 1.25, 2.5, 5.0, and 10.0 μg/mL with control (without any treatment). After 72 hours of incubation, medium in all test and control wells was substituted by 100 µL/well of MTT solution (0.5 mg/mL, in PBS) and incubated for a further 3 h at 37° C. Afterwards, the MTT solution was replaced with 100 μL isopropanol/well to dissolve the purple formazan crystals formed at the bottom of the wells, with shaking for at least 2 h at room temperature in dark. Subsequently, the color intensity in the wells was measured at 549 nm with a Bio-Tek microplate reader (ELX 800; Bio-Tek Instruments, Winooski, VT, USA). The results were analyzed in triplicates and the viability percentage was calculated. The data are presented as the percentages of viable cells in the test wells compared to those of the control group. The following equation was used to calculate the cell viability: […]
(§5) Liver and lung cancer cell lines were used to observe the antiproliferative effects of different concentrations of L as a growth-inhibiting study utilizing MTT-based viability assays. The MTT assay is based on mitochondrial activity. […] The results of both batches are admirable and far better than earlier reported publications. Therefore, we repeated this experiment with lung cancer cell lines and found almost similar results (FIGS. 9 and 10) as were with liver cancer cells.

lung cancer (A549) = assay: MTT in vitro cytotoxicity assay; details: Homo sapiens, lung cancer cells, MTT 72 h
Experimental: as §3, §4, §5

**Q.** Which results are given for C[C@@H]1[C@H](O)[C@@H](C)/C=C/C=C/C=C/C=C/C=C/C=C/C=C/[C@H](O[C@@H]2O[C@H](C)[C@@H](O)[C@H](N)[C@@H]2O)C[C@@H]2O[C@](O)(C[C@@H](O)C[C@@H](O)[C@H](O)CC[C@@H](O)C[C@@H](O)CC(=O)O[C@H]1C)C[C@H](O)[C@H]2C(=O)O [Amphotericin-B, reference compound]?
**A.** Diameter of inhibition zones, A. niger [1]: 8.0 mm; Diameter of inhibition zones, T. harzianum [2]: 17.0 mm

**Q.** CO/N=C(\C(=O)N[C@@H]1C(=O)N2C(C(=O)O)=C(CSc3nc(=O)c(=O)[nH]n3C)CS[C@H]12)c1csc(N)n1 [Ceftriaxone, reference compound] was tested. Which “Diameter of inhibition zones, B. megnaterium” value (Bacillus Megnaterium) did it give?
**A.** The value was 50.0 mm.

**Q.** What about the “Diameter of inhibition zones, E. coli” value [3] of the same molecule?
**A.** The value was 38.0 mm.

**Q.** What about the “Diameter of inhibition zones, S. typhi” value [4] of the same molecule?
**A.** The value was 44.0 mm.

**Q.** And the “Diameter of inhibition zones, S. aureus” value [5]?
**A.** The value was 40.0 mm.

**Q.** With C/C(=N\NC(=O)c1cc(Br)ccc1O)c1ccccn1 [Compound L, 5-bromo-2-hydroxy-N′-[(1E)-1-(pyridin-2-yl)ethylidene]benzohydrazide] as the molecule, how does the “Diameter of inhibition zone” value (Bacillus Megnaterium; Bacillus Megaterium) read?
**A.** The value was 20 mm.

**Q.** What about the “Diameter of inhibition zones, B. megnaterium” value (Bacillus Megnaterium) of the same molecule?
**A.** The value was 20 mm.

**Q.** And the “Diameter of inhibition zone” value ([3]; Escherichia coli)?
**A.** Its value is 17 mm.

**Q.** What about the “Diameter of inhibition zones, E. coli” value [3] of the same molecule?
**A.** Its value is 17 mm.

**Q.** What about the “Diameter of inhibition zones, S. typhi” value [4] of the same molecule?
**A.** Its value is 26 mm.

**Q.** What about the “Diameter of inhibition zone” value ([4]; Salmonella typhi) of the same molecule?
**A.** The value was 26 mm.

**Q.** And the “Diameter of inhibition zones, S. aureus” value [5]?
**A.** The value was 24 mm.

**Q.** What about the “Diameter of inhibition zone” value ([5]; Staphylococcus aureus) of the same molecule?
**A.** The value was 24 mm.

**Q.** And the “Diameter of inhibition zones, A. niger” value [1]?
**A.** Its value is 12 mm.

**Q.** And the “Diameter of inhibition zones, T. harzianum” value [2]?
**A.** The value was 12 mm.

**Q.** And the viability at 0.078 µg/mL ([6]; HepG2, 72 h)?
**A.** Its viability at 0.078 µg/mL is 34.4%.

**Q.** What about the viability at 1.95 µg/mL ([6]; HepG2, 72 h) of the same molecule?
**A.** Its viability at 1.95 µg/mL is 14.8%.

**Q.** What about the viability at 0.156 µg/mL ([6]; HepG2, liver cancer cells, 0.156 μg/mL, MTT 72 h, FIG. 2) of the same molecule?
**A.** Its viability at 0.156 µg/mL is 24.4%.

**Q.** What about the viability at 0.312 µg/mL ([6]; HepG2, liver cancer cells, 0.312 μg/mL, MTT 72 h, FIG. 2) of the same molecule?
**A.** The viability at 0.312 µg/mL was 28%.

**Q.** What about the viability at 0.625 µg/mL ([6]; HepG2, liver cancer cells, 0.625 μg/mL, MTT 72 h, FIG. 2) of the same molecule?
**A.** The viability at 0.625 µg/mL was 20.3%.

**Q.** And the viability at 1.25 µg/mL ([6]; HepG2, liver cancer cells, 1.25 μg/mL, MTT 72 h, FIG. 2)?
**A.** Its viability at 1.25 µg/mL is 20.2%.

**Q.** And the viability at 2.5 µg/mL ([6]; HepG2, liver cancer cells, 2.5 μg/mL, MTT 72 h, FIG. 2)?
**A.** The viability at 2.5 µg/mL was 12.7%.

**Q.** What about the viability at 3.9 µg/mL ([6]; HepG2, liver cancer cells, 3.9 μg/mL, MTT 72 h, FIG. 3) of the same molecule?
**A.** The viability at 3.9 µg/mL was 12.2%.

**Q.** And the viability at 5 µg/mL ([6]; HepG2, liver cancer cells, 5.0 μg/mL, MTT 72 h, FIG. 2)?
**A.** The viability at 5 µg/mL was 10.9%.

**Q.** What about the viability at 7.8 µg/mL ([6]; HepG2, liver cancer cells, 7.8 μg/mL, MTT 72 h, FIG. 3) of the same molecule?
**A.** The viability at 7.8 µg/mL was 9.57%.

**Q.** And the viability at 10 µg/mL ([6]; HepG2, liver cancer cells, 10.0 μg/mL, MTT 72 h, FIG. 2)?
**A.** Its viability at 10 µg/mL is 10.4%.

**Q.** And the viability at 15.6 µg/mL ([6]; HepG2, liver cancer cells, 15.6 μg/mL, MTT 72 h, FIG. 3)?
**A.** Its viability at 15.6 µg/mL is 8.96%.

**Q.** What about the viability at 31.25 µg/mL ([6]; HepG2, liver cancer cells, 31.25 μg/mL, MTT 72 h, FIG. 3) of the same molecule?
**A.** Its viability at 31.25 µg/mL is 9.09%.

**Q.** And the viability at 62.5 µg/mL ([6]; HepG2, liver cancer cells, 62.5 μg/mL, MTT 72 h, FIG. 3)?
**A.** Its viability at 62.5 µg/mL is 8.86%.

**Q.** And the viability at 125 µg/mL ([6]; HepG2, liver cancer cells, 125 μg/mL, MTT 72 h, FIG. 3)?
**A.** Its viability at 125 µg/mL is 9.34%.

**Q.** What about the viability at 250 µg/mL ([6]; HepG2, liver cancer cells, 250 μg/mL, MTT 72 h, FIG. 3) of the same molecule?
**A.** Its viability at 250 µg/mL is 9.38%.

**Q.** And the viability at 0.078 µg/mL (lung cancer (A549); 0.078 μg/mL, FIG. 4, read-out: % cell viability)?
**A.** The viability at 0.078 µg/mL was 18.6%.

**Q.** And the viability at 0.156 µg/mL (lung cancer (A549); 0.156 μg/mL, FIG. 4, read-out: % cell viability)?
**A.** The viability at 0.156 µg/mL was 13.2%.

**Q.** What about the viability at 0.312 µg/mL (lung cancer (A549); 0.312 μg/mL, FIG. 4, read-out: % cell viability) of the same molecule?
**A.** The viability at 0.312 µg/mL was 12.8%.

**Q.** And the viability at 0.625 µg/mL (lung cancer (A549); 0.625 μg/mL, FIG. 4, read-out: % cell viability)?
**A.** Its viability at 0.625 µg/mL is 12.3%.

**Q.** And the viability at 1.25 µg/mL (lung cancer (A549); 1.25 μg/mL, FIG. 4, read-out: % cell viability)?
**A.** Its viability at 1.25 µg/mL is 12.1%.

**Q.** What about the viability at 1.95 µg/mL (lung cancer (A549); 1.95 μg/mL, FIG. 5, read-out: % cell viability) of the same molecule?
**A.** Its viability at 1.95 µg/mL is 18%.

**Q.** And the viability at 2.5 µg/mL (lung cancer (A549); 2.5 μg/mL, FIG. 4, read-out: % cell viability)?
**A.** The viability at 2.5 µg/mL was 11.7%.

**Q.** What about the viability at 3.9 µg/mL (lung cancer (A549); 3.9 μg/mL, FIG. 5, read-out: % cell viability) of the same molecule?
**A.** The viability at 3.9 µg/mL was 16.7%.

**Q.** And the viability at 5 µg/mL (lung cancer (A549); 5.0 μg/mL, FIG. 4, read-out: % cell viability)?
**A.** The viability at 5 µg/mL was 11%.

**Q.** And the viability at 7.8 µg/mL (lung cancer (A549); 7.8 μg/mL, FIG. 5, read-out: % cell viability)?
**A.** Its viability at 7.8 µg/mL is 12.5%.

**Q.** And the viability at 10 µg/mL (lung cancer (A549); 10.0 μg/mL, FIG. 4, read-out: % cell viability)?
**A.** Its viability at 10 µg/mL is 11.1%.

**Q.** What about the viability at 15.6 µg/mL (lung cancer (A549); 15.6 μg/mL, FIG. 5, read-out: % cell viability) of the same molecule?
**A.** The viability at 15.6 µg/mL was 11.8%.

**Q.** And the viability at 31.25 µg/mL (lung cancer (A549); 31.25 μg/mL, FIG. 5, read-out: % cell viability)?
**A.** Its viability at 31.25 µg/mL is 11.7%.

**Q.** And the viability at 62.5 µg/mL (lung cancer (A549); 62.5 μg/mL, FIG. 5, read-out: % cell viability)?
**A.** The viability at 62.5 µg/mL was 11.4%.

**Q.** What about the viability at 125 µg/mL (lung cancer (A549); 125 μg/mL, FIG. 5, read-out: % cell viability) of the same molecule?
**A.** Its viability at 125 µg/mL is 11.6%.

**Q.** What about the viability at 250 µg/mL (lung cancer (A549); 250 μg/mL, FIG. 5, read-out: % cell viability) of the same molecule?
**A.** Its viability at 250 µg/mL is 11.6%.

Reference: US20250282726A1, “5-BROMO-2-HYDROXY-N'-[(1E)-1-(PYRIDIN-2-YL) ETHYLIDENE]BENZOHYDRAZIDE AS AN ANTI-CANCER AND ANTIMICROBIAL AGENT” (KING SAUD UNIVERSITY, priority 2024, published 2025)
